Measurements as given in patent publication US12077537B2 (Gilead Sciences, Inc., priority 2020, dated 2024).

Tested on: HIV-IIIb
Assay: Antiviral assay in MT4 cells
Type: cell-based
Settings: Human immunodeficiency virus 1, MT4, 120 h; MT-4 cells mixed with HIV-IIIb at m.o.i. 0.003; 5 days at 37° C.; CellTiter-Glo luminescence; 50% decrease in signal, a measure of HIV-1 replication
Outline: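 Compound, tested at ten 3-fold dilutions in quadruplicate in 10% FBS medium, received MT-4 cells pre-mixed 1 hour with HIV-IIIb (m.o.i. 0.003). Protection was read as luminescent cell viability (CellTiter-Glo) after 5 days' culture at 37° C.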

SMILES | EC50 [nM]
Cn1nc(NS(C)(=O)=O)c2cccc(-c3cc4sc(NCC(C)(C)O)nc4nc3[C@H](Cc3cc(F)cc(F)c3)NC(=O)Cn3nc(C(F)F)c4c3C(F)(F)CCC4(F)F)c21 [Compound 56, (S)-2-(3-(difluoromethyl)-4,4,7,7-tetrafluoro-4,5,6,7-tetrahydro-1H-indazol-1-yl)-N-(2-(3,5-difluorophenyl)-1-(2-((2-hydroxy-2-methylpropyl)amino)-6-(1-methyl-3-(methylsulfonamido)-1H-indazol-7-yl)thiazolo[4,5-b]pyridin-5-yl)ethyl)acetamide] | 55.8
Cn1nc(N)c2cccc(-c3cc4sc(NCC(C)(C)O)nc4nc3[C@H](Cc3cc(F)cc(F)c3)NC(=O)Cn3nc(C(F)F)c4c3C(F)(F)[C@@H]3C[C@H]43)c21 [Compound 57, N—((S)-1-(6-(3-amino-1-methyl-1H-indazol-7-yl)-2-((2-hydroxy-2-methylpropyl)amino)thiazolo[4,5-b]pyridin-5-yl)-2-(3,5-difluorophenyl)ethyl)-2-((3bS,4aR)-3-(difluoromethyl)-5,5-difluoro-3b,4,4a,5-tetrahydro-1H-cyclopropa[3,4]cyclopenta[1,2-c]pyrazol-1-yl)acetamide] | 13
Cn1nc(N)c2cccc(-c3cc4sc(N5CC(C)(O)C5)nc4nc3[C@H](Cc3cc(F)cc(F)c3)NC(=O)Cn3nc(C(F)(F)F)c4c3C(F)(F)[C@@H]3C[C@H]43)c21 [Compound 58, N—((S)-1-(6-(3-amino-1-methyl-1H-indazol-7-yl)-2-(3-hydroxy-3-methylazetidin-1-yl)thiazolo[4,5-b]pyridin-5-yl)-2-(3,5-difluorophenyl)ethyl)-2-((3bS,4aR)-5,5-difluoro-3-(trifluoromethyl)-3b,4,4a,5-tetrahydro-1H-cyclopropa[3,4]cyclopenta[1,2-c]pyrazol-1-yl)acetamide] | 14.7
Cn1nc(N)c2cccc(-c3cc4sc(N5CC(C)(O)C5)nc4nc3[C@H](Cc3cc(F)cc(F)c3)NC(=O)Cn3nc(C(F)F)c4c3C(F)(F)[C@@H]3C[C@H]43)c21 [Compound 59, N—((S)-1-(6-(3-amino-1-methyl-1H-indazol-7-yl)-2-(3-hydroxy-3-methylazetidin-1-yl)thiazolo[4,5-b]pyridin-5-yl)-2-(3,5-difluorophenyl)ethyl)-2-((3bS,4aR)-3-(difluoromethyl)-5,5-difluoro-3b,4,4a,5-tetrahydro-1H-cyclopropa[3,4]cyclopenta[1,2-c]pyrazol-1-yl)acetamide] | 16.3
Cn1nc(N)c2cccc(-c3cc4sc(NCC(C)(C)O)nc4nc3[C@H](Cc3cc(F)cc(F)c3)NC(=O)Cn3nc(C(F)F)c4c3C(F)(F)CCC4(F)F)c21 [Compound 60, (S)—N-(1-(6-(3-amino-1-methyl-1H-indazol-7-yl)-2-((2-hydroxy-2-methylpropyl)amino)thiazolo[4,5-b]pyridin-5-yl)-2-(3,5-difluorophenyl)ethyl)-2-(3-(difluoromethyl)-4,4,7,7-tetrafluoro-4,5,6,7-tetrahydro-1H-indazol-1-yl)acetamide] | 60
CCS(=O)(=O)Nc1nn(C)c2c(-c3cc4sc(NCC(C)(C)O)nc4nc3[C@H](Cc3cc(F)cc(F)c3)NC(=O)Cn3nc(C(F)F)c4c3C(F)(F)[C@@H]3C[C@H]43)cccc12 [Compound 61, 2-((3bS,4aR)-3-(difluoromethyl)-5,5-difluoro-3b,4,4a,5-tetrahydro-1H-cyclopropa[3,4]cyclopenta[1,2-c]pyrazol-1-yl)-N—((S)-2-(3,5-difluorophenyl)-1-(6-(3-(ethylsulfonamido)-1-methyl-1H-indazol-7-yl)-2-((2-hydroxy-2-methylpropyl)amino)thiazolo[4,5-b]pyridin-5-yl)ethyl)acetamide] | 10
Cn1nc(NS(=O)(=O)C2CC2)c2cccc(-c3cc4sc(NCC(C)(C)O)nc4nc3[C@H](Cc3cc(F)cc(F)c3)NC(=O)Cn3nc(C(F)F)c4c3C(F)(F)[C@@H]3C[C@H]43)c21 [Compound 62, N—((S)-1-(6-(3-(cyclopropanesulfonamido)-1-methyl-1H-indazol-7-yl)-2-((2-hydroxy-2-methylpropyl)amino)thiazolo[4,5-b]pyridin-5-yl)-2-(3,5-difluorophenyl)ethyl)-2-((3bS,4aR)-3-(difluoromethyl)-5,5-difluoro-3b,4,4a,5-tetrahydro-1H-cyclopropa[3,4]cyclopenta[1,2-c]pyrazol-1-yl)acetamide] | 7.9
CCS(=O)(=O)Nc1nn(C)c2c(-c3cc4sc(NCC(C)(C)O)nc4nc3[C@H](Cc3cc(F)cc(F)c3)NC(=O)Cn3nc(C(F)(F)F)c4c3C(F)(F)[C@@H]3C[C@H]43)cccc12 [Compound 63, 2-((3bS,4aR)-5,5-difluoro-3-(trifluoromethyl)-3b,4,4a,5-tetrahydro-1H-cyclopropa[3,4]cyclopenta[1,2-c]pyrazol-1-yl)-N—((S)-2-(3,5-difluorophenyl)-1-(6-(3-(ethylsulfonamido)-1-methyl-1H-indazol-7-yl)-2-((2-hydroxy-2-methylpropyl)amino)thiazolo[4,5-b]pyridin-5-yl)ethyl)acetamide] | 7.2
CC(C)N1CCN(c2nc3nc([C@H](Cc4cc(F)cc(F)c4)NC(=O)Cn4nc(C(F)(F)F)c5c4C(F)(F)[C@@H]4C[C@H]54)c(-c4cccc5c(NS(C)(=O)=O)nn(C)c45)cc3s2)CC1 [Compound 64, 2-((3bS,4aR)-5,5-difluoro-3-(trifluoromethyl)-3b,4,4a,5-tetrahydro-1H-cyclopropa[3,4]cyclopenta[1,2-c]pyrazol-1-yl)-N—((S)-2-(3,5-difluorophenyl)-1-(2-(4-isopropylpiperazin-1-yl)-6-(1-methyl-3-(methylsulfonamido)-1H-indazol-7-yl)thiazolo[4,5-b]pyridin-5-yl)ethyl)acetamide] | 9.2
Cn1nc(NS(C)(=O)=O)c2cccc(-c3cc4scnc4nc3C(Cc3cc(F)cc(F)c3)NC(=O)Cn3nc(C(F)(F)F)c4c3C(F)(F)[C@@H]3C[C@H]43)c21 (stereo partly drawn) [Compound 129, 2-((3bS,4aR)-5,5-difluoro-3-(trifluoromethyl)-3b,4,4a,5-tetrahydro-1H-cyclopropa[3,4]cyclopenta[1,2-c]pyrazol-1-yl)-N-(2-(3,5-difluorophenyl)-1-(6-(1-methyl-3-(methylsulfonamido)-1H-indazol-7-yl)thiazolo[4,5-b]pyridin-5-yl)ethyl)acetamide] | 16.9
Cc1nc2nc(C(Cc3cc(F)cc(F)c3)NC(=O)Cn3nc(C(F)(F)F)c4c3C(F)(F)[C@@H]3C[C@H]43)c(-c3cccc4c(NS(C)(=O)=O)nn(C)c34)cc2s1 (stereo partly drawn) [Compound 130, 2-((3bS,4aR)-5,5-difluoro-3-(trifluoromethyl)-3b,4,4a,5-tetrahydro-1H-cyclopropa[3,4]cyclopenta[1,2-c]pyrazol-1-yl)-N-(2-(3,5-difluorophenyl)-1-(2-methyl-6-(1-methyl-3-(methylsulfonamido)-1H-indazol-7-yl)thiazolo[4,5-b]pyridin-5-yl)ethyl)acetamide] | 6
Cn1nc(NS(C)(=O)=O)c2cccc(-c3cc4sc(C#N)nc4nc3C(Cc3cc(F)cc(F)c3)NC(=O)Cn3nc(C(F)(F)F)c4c3C(F)(F)[C@@H]3C[C@H]43)c21 (stereo partly drawn) [Compound 131, N-(1-(2-cyano-6-(1-methyl-3-(methylsulfonamido)-1H-indazol-7-yl)thiazolo[4,5-b]pyridin-5-yl)-2-(3,5-difluorophenyl)ethyl)-2-((3bS,4aR)-5,5-difluoro-3-(trifluoromethyl)-3b,4,4a,5-tetrahydro-1H-cyclopropa[3,4]cyclopenta[1,2-c]pyrazol-1-yl)acetamide] | 28.1
Cn1nc(NS(C)(=O)=O)c2cccc(-c3cc4sc(-c5cn[nH]c5)nc4nc3C(Cc3cc(F)cc(F)c3)NC(=O)Cn3nc(C(F)(F)F)c4c3C(F)(F)[C@@H]3C[C@H]43)c21 (stereo partly drawn) [Compound 132, 2-((3bS,4aR)-5,5-difluoro-3-(trifluoromethyl)-3b,4,4a,5-tetrahydro-1H-cyclopropa[3,4]cyclopenta[1,2-c]pyrazol-1-yl)-N-(2-(3,5-difluorophenyl)-1-(6-(1-methyl-3-(methylsulfonamido)-1H-indazol-7-yl)-2-(1H-pyrazol-4-yl)thiazolo[4,5-b]pyridin-5-yl)ethyl)acetamide] | 43.7
Cn1nc(NS(C)(=O)=O)c2cccc(-c3cc4sc(-c5c[nH]cn5)nc4nc3C(Cc3cc(F)cc(F)c3)NC(=O)Cn3nc(C(F)(F)F)c4c3C(F)(F)[C@@H]3C[C@H]43)c21 (stereo partly drawn) [Compound 133, N-(1-(2-(1H-imidazol-4-yl)-6-(1-methyl-3-(methylsulfonamido)-1H-indazol-7-yl)thiazolo[4,5-b]pyridin-5-yl)-2-(3,5-difluorophenyl)ethyl)-2-((3bS,4aR)-5,5-difluoro-3-(trifluoromethyl)-3b,4,4a,5-tetrahydro-1H-cyclopropa[3,4]cyclopenta[1,2-c]pyrazol-1-yl)acetamide] | 43.3
Cn1cnc(-c2nc3nc(C(Cc4cc(F)cc(F)c4)NC(=O)Cn4nc(C(F)(F)F)c5c4C(F)(F)[C@@H]4C[C@H]54)c(-c4cccc5c(NS(C)(=O)=O)nn(C)c45)cc3s2)c1 (stereo partly drawn) [Compound 134, 2-((3bS,4aR)-5,5-difluoro-3-(trifluoromethyl)-3b,4,4a,5-tetrahydro-1H-cyclopropa[3,4]cyclopenta[1,2-c]pyrazol-1-yl)-N-(2-(3,5-difluorophenyl)-1-(2-(1-methyl-1H-imidazol-4-yl)-6-(1-methyl-3-(methylsulfonamido)-1H-indazol-7-yl)thiazolo[4,5-b]pyridin-5-yl)ethyl)acetamide] | 10.2
Cn1nc(NS(C)(=O)=O)c2c(Cl)ccc(-c3cc4[nH]c(=O)ccc4nc3C(Cc3cc(F)cc(F)c3)NC(=O)Cn3nc(C(F)F)c4c3C(F)(F)[C@@H]3C[C@H]43)c21 (stereo partly drawn) [Compound 135, N-(1-(3-(4-chloro-1-methyl-3-(methylsulfonamido)-1H-indazol-7-yl)-6-oxo-5,6-dihydro-1,5-naphthyridin-2-yl)-2-(3,5-difluorophenyl)ethyl)-2-((3bS,4aR)-3-(difluoromethyl)-5,5-difluoro-3b,4,4a,5-tetrahydro-1H-cyclopropa[3,4]cyclopenta[1,2-c]pyrazol-1-yl)acetamide] | 18
